Measurements taken from the NIST ThermoML archive (doi:10.1021/je400622g).
Numbers after ± are expanded uncertainties.

Assays:
[1] = Liquid; for mass density: 298.15 K, Vibrating tube method
[2] = refractive index (Na D-line) (dimensionless); conditions: 298.15 K; 101.33 kPa; Liquid; Standard Abbe refractometry
[3] = xn = mol fraction of the nth substance listed; conditions: 298.15 K, Liquid, Vibrating tube method

## CCOC(C)=O [ethyl acetate]
[1]
  mass density: 894.5 ± 0.2 kg/m3
[1]; 417.02 K, Ebulliometric method (Recirculating still)
  vapor or sublimation pressure: 600 ± 8.4 kPa
[1]; Ebulliometric method (Recirculating still)
  Normal boiling temperature: 77.04 ± 0.3 °C
[2]
  refractive index: 1.3698 ± 0.0005

## CCOC(C)=O [ethyl acetate] + CCCO
[3]; x1 = 0.0442
  mass density: 804.5 ± 0.3 kg/m3
[3]; x1 = 0.0911
  mass density: 809.6 ± 0.3 kg/m3
[3]; x1 = 0.1433
  mass density: 815.2 ± 0.3 kg/m3
[3]; x1 = 0.201
  mass density: 821.3 ± 0.3 kg/m3
[3]; x1 = 0.2417
  mass density: 825.5 ± 0.3 kg/m3
[3]; x1 = 0.2986
  mass density: 831.4 ± 0.3 kg/m3
[3]; x1 = 0.3435
  mass density: 835.9 ± 0.3 kg/m3
[3]; x1 = 0.4654
  mass density: 847.6 ± 0.2 kg/m3
[3]; x1 = 0.5534
  mass density: 855.8 ± 0.2 kg/m3
[3]; x1 = 0.6461
  mass density: 864.2 ± 0.2 kg/m3
[3]; x1 = 0.6917
  mass density: 868.2 ± 0.2 kg/m3
[3]; x1 = 0.7647
  mass density: 874.5 ± 0.2 kg/m3
[3]; x1 = 0.8037
  mass density: 877.9 ± 0.2 kg/m3
[3]; x1 = 0.8347
  mass density: 880.5 ± 0.2 kg/m3
[3]; x1 = 0.8535
  mass density: 882.1 ± 0.2 kg/m3
[3]; x1 = 0.9053
  mass density: 886.4 ± 0.2 kg/m3
[3]; x1 = 0.9649
  mass density: 891.4 ± 0.2 kg/m3
[3]; x1 = 1
  mass density: 894.5 ± 0.2 kg/m3

## COC(C)=O [methyl ethanoate]
[1]; 393.01 K, Ebulliometric method (Recirculating still)
  vapor or sublimation pressure: 600 ± 8.7 kPa

## CCCO [propan-1-ol]
[1]
  mass density: 799.6 ± 0.3 kg/m3
[1]; 427.2 K, Ebulliometric method (Recirculating still)
  vapor or sublimation pressure: 600 ± 8.7 kPa

## CCCO [propan-1-ol] + CCCOC(C)=O
[3]; x2 = 0
  mass density: 799.6 ± 0.3 kg/m3

## CCCO [propan-1-ol] + CCOC(C)=O
[3]; x2 = 0
  mass density: 799.6 ± 0.3 kg/m3

## CCCOC(C)=O [propyl ethanoate]
[1]
  mass density: 882.4 ± 0.2 kg/m3
[1]; 446.02 K, Ebulliometric method (Recirculating still)
  vapor or sublimation pressure: 600 ± 8.4 kPa

## CCCOC(C)=O [propyl ethanoate] + CCCO
[3]; x1 = 0.0544
  mass density: 805.9 ± 0.3 kg/m3
[3]; x1 = 0.0997
  mass density: 810.9 ± 0.3 kg/m3
[3]; x1 = 0.1515
  mass density: 816.5 ± 0.3 kg/m3
[3]; x1 = 0.1951
  mass density: 821 ± 0.3 kg/m3
[3]; x1 = 0.2503
  mass density: 826.4 ± 0.3 kg/m3
[3]; x1 = 0.3164
  mass density: 832.6 ± 0.3 kg/m3
[3]; x1 = 0.3481
  mass density: 835.4 ± 0.3 kg/m3
[3]; x1 = 0.4144
  mass density: 841.2 ± 0.3 kg/m3
[3]; x1 = 0.4959
  mass density: 847.9 ± 0.2 kg/m3
[3]; x1 = 0.5463
  mass density: 851.8 ± 0.2 kg/m3
[3]; x1 = 0.6051
  mass density: 856.2 ± 0.2 kg/m3
[3]; x1 = 0.6968
  mass density: 862.8 ± 0.2 kg/m3
[3]; x1 = 0.7528
  mass density: 866.6 ± 0.2 kg/m3
[3]; x1 = 0.7893
  mass density: 869 ± 0.2 kg/m3
[3]; x1 = 0.7984
  mass density: 869.7 ± 0.2 kg/m3
[3]; x1 = 0.8531
  mass density: 873.2 ± 0.2 kg/m3
[3]; x1 = 0.8873
  mass density: 875.4 ± 0.2 kg/m3
[3]; x1 = 0.9521
  mass density: 879.4 ± 0.2 kg/m3
[3]; x1 = 1
  mass density: 882.4 ± 0.2 kg/m3
